Laboratory results: patent US20260207654A1, “HEPARAN SULFATE AND ITS MIMETICS AS CHEMOKINE INHIBITORS” (INDIAN INSTITUTE OF SCIENCE EDUCATION AND RESEARCH, priority 2021, published 2026)

Experiments:
Assay in all cases: Chemokine glycan microarray binding assay
Conditions in all cases: maximum RFU set as 100% binding, average across 2 glycan concentrations and 3 chemokine dilutions (n=6)
CXCL8 = molecular target: T1, CXCL8 (Homo sapiens, UniProt P10145)
T1 sequence (P10145 21-99): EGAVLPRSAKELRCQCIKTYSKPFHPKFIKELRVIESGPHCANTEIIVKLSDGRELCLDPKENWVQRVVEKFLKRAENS
Experimental: (§1) Microarray Studies: The compounds of the present invention were covalently immobilized on epoxy group collated glass slides. Slides were rehydrated with dH2O and incubated for 30 min in a staining dish with 50° C. prewarmed ethanolamine (0.05 M) in Tris-HCl (0.1 M, pH 9.0) to block the remaining reactive epoxy groups on the slide surface, then washed with 50° C. prewarmed dH2O. Slides were centrifuged at 200 g for 3 min, then fitted with the ProPlate Multi-Array 16-well slide module (Grace Bio-lab P37001) to divide into the subarrays (blocks). Slides were washed with PBST (0.1% Tween 20), aspirated, and blocked with 200 μL/subarray of blocking buffer (PBS pH 7.3+1% w/v ovalbumin) for 1 h at RT with gentle shaking. Next, the blocking solution was aspirated and 100 μL/block of primary chemokines diluted in PBS pH 7.3+1% w/v ovalbumin were incubated with gentle shaking for 2 hours at RT. Slides were washed 4 times with PBST, then with PBS (without Tween-20) for 2 min. Bound antibodies were detected by incubating with biotinylated secondary detections (1 ng/μL) diluted in PBS, 200 μL/block at RT for 1 h. Slides were washed 4 times with PBST, then with PBS (without Tween-20) for 2 min and biotinylated antibodies were detected with Cy3-SA ([…]). Slides were washed 4 times with PBST, then with PBS for 10 min followed by removal from the ProPlate Multi-Array slide module and immediately dipping in a staining dish with dH2O for 10 min with shaking. The slides were then centrifuged at 200 g for 3 min, and the dry slides immediately scanned. Binding was tested at three serial dilutions, then detected with the relevant biotinylated secondary antibody (1 μg/mL) followed by Cy3-strepavidin (1.5 μg/mL). Arrays were scanned and RFUs were calculated of chemokines binding to 100 μM glycans printed at four replicates. Rank binding of chemokines (each at three dilutions) to glycans printed at four replicates each was calculated and summarized in Table 1. For each binding assay per printed block, the maximum RFU was determined and set as 100% binding. Then, binding to all other glycans in the same block was ranked in comparison to the maximal binding, and average rank binding (and SEM) for each glycan across the three examined concentrations of each chemokine was calculated. This analysis allowed to compare the glycan-binding profiles of the different chemokines and dissect their binding preferences.
(§2) Table 1. Chemokine glycan microarray binding assay. Binding was tested at 3 serial dilutions, then detected with the relevant biotinylated secondary antibody (1 μg/ml) followed by Cy3-Strepavidin (1.5 μg/ml) (Table SX). Arrays were scanned, relative fluorescent units (RFU) obtained, and maximum RFU determined and set as 100% binding. Then rank binding (per printed glycan per concentration, per each chemokine dilution, per printed block) was determined. Since each glycans was printed at 2 concentration, 100% binding was set separately for each concentration. Then, binding to all the other glycans at the same concentration was ranked in comparison to the maximal binding, and the average rank binding and SEM for each glycan across the two glycan concentrations and three examined dilutions of each chemokine was calculated (n=6, 2 glycan concentrations across 3 chemokine dilutions). This analysis allowed to compare the glycan binding profiles of the different chemokines and dissect their binding preferences. The mean rank is shown as a heatmap of all the examined binding assays together (red highest, blue lowest and white 50th percentile of ranking).

CCL13 = CCL13 (Homo sapiens, UniProt Q99616)
CCL13, sequence (Q99616 17-98, species assumed): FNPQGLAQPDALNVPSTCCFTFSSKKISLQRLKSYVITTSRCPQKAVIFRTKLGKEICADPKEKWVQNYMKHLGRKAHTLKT
Experimental: as §1, §2

CCL28 = molecular target: T2, CCL28 (Homo sapiens, UniProt Q9NRJ3)
T2 sequence (Q9NRJ3 20-127): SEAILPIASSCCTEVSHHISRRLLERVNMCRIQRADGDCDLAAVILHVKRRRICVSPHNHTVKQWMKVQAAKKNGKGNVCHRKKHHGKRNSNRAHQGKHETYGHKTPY
Experimental: as §1, §2

CXCL10 = molecular target: T3, CXCL10 (Homo sapiens, UniProt P02778)
T3 sequence (P02778 22-98): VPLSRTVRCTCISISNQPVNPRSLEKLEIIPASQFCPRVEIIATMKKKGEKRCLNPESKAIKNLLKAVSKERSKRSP
Experimental: as §1, §2

CCL21 = molecular target: T4, CCL21 (Homo sapiens, UniProt O00585)
T4 sequence (O00585 24-134): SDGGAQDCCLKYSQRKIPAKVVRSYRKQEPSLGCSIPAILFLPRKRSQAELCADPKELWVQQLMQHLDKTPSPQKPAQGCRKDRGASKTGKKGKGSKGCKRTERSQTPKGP
Experimental: as §1, §2

CXCL12 = CXCL12 (Homo sapiens, UniProt P48061)
CXCL12, sequence (P48061 22-93, species assumed): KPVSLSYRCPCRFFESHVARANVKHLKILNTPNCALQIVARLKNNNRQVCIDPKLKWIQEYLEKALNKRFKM
Experimental: as §1, §2

CCL5 = molecular target: T5, CCL5 (Homo sapiens, UniProt P13501)
T5 sequence (P13501 24-91): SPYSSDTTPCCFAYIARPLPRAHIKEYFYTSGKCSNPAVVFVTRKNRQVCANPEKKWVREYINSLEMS
Experimental: as §1, §2

CCL7 = CCL7 (Homo sapiens, UniProt P80098)
CCL7, sequence (P80098 24-99, species assumed): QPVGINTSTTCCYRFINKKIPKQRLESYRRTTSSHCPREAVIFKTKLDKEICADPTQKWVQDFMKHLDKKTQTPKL
Experimental: as §1, §2

CCL2 = CCL2 (Homo sapiens, UniProt P13500)
CCL2, sequence (P13500 24-99, species assumed): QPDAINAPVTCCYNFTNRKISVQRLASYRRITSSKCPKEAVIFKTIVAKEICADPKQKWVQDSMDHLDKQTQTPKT
Experimental: as §1, §2

Row | Structure (SMILES) | mean rank binding to CXCL8 (CXCL8) [%] | mean rank binding to CCL13 (CCL13) [%] | mean rank binding to CCL28 (CCL28) [%] | mean rank binding to CXCL10 (CXCL10) [%] | mean rank binding to CCL21 (CCL21) [%] | mean rank binding to CXCL12 (CXCL12) [%] | mean rank binding to CCL5 (CCL5) [%] | mean rank binding to CCL7 (CCL7) [%] | mean rank binding to CCL2 (CCL2) [%]
1 | NCCOCCO[C@@H]1O[C@@H](C(=O)O)[C@@H](O[C@@H]2O[C@@H](C(=O)O)[C@@H](O[C@@H]3O[C@@H](C(=O)O)[C@@H](OS(=O)(=O)O)[C@H](O)[C@H]3OS(=O)(=O)O)[C@H](O)[C@H]2OS(=O)(=O)O)[C@H](O)[C@H]1OS(=O)(=O)O [Example 9, Ethoxy-2-aminoethoxyl-O-(2,4-O-disulfonato)-α-L-idopyranosyl Uronic Acid-α(1→4)(2-O-sulfonato)-α-L-idopyranosyl uronic acid-α(1→4)(2-O-sulfonato)-α-L-idopyranoside Uronic Acid] | 71 | 53 | 51 | 82 | 79 | 75 | 75 | 94 | 66
2 | NCCCO[C@@H]1OC(C(=O)O)[C@@H](O[C@H]2OC(COS(=O)(=O)O)[C@@H](O[C@@H]3OC(C(=O)O)[C@@H](O[C@H]4OC(COS(=O)(=O)O)[C@@H](O)[C@H](O)C4N)C(O)[C@@H]3O)[C@H](O)C2N)C(O)[C@@H]1O (stereo partly drawn) [Example 23, 3-Aminopropyl-O-[(2-amino-6-O-sulfonato-2-deoxy-α-D-glucopyranosyl)-(1→4)-O-(α-L-idopyranosyluronate)-(1→4)-O-(2-amino-6-O-sulfonato-2-deoxy-α-D-glucopyranosyl)]-(1→4)-O-α-L-idopyranosiduronate] | 5 | 45 | 38 | 15 | 25 | 25 | 3 | 11 | 1
3 | NCCOCCO[C@@H]1O[C@@H](C(=O)O)[C@@H](O[C@@H]2O[C@@H](C(=O)O)[C@@H](OS(=O)(=O)O)[C@H](O)[C@H]2O)[C@H](O)[C@H]1O [Example 5, Ethoxy-2-aminoethoxyl-O-((4-O-sulfonato)-α-L-idopyranosyl Uronic Acid-α(1→4))-α-L-idopyranoside Uronic Acid] | 62 | 81 | 80 | 57 | 62 | 64 | 15 | 58 | 23
4 | NCCCO[C@@H]1O[C@@H](C(=O)O)[C@@H](O[C@H]2O[C@H](CO)[C@@H](O[C@@H]3O[C@@H](C(=O)O)[C@@H](O[C@H]4O[C@H](CO)[C@@H](O)[C@H](OS(=O)(=O)O)[C@H]4N)[C@H](O)[C@H]3OS(=O)(=O)O)[C@H](OS(=O)(=O)O)[C@H]2N)[C@H](O)[C@H]1OS(=O)(=O)O [Example 18, 3-Aminopropyl-O-[(2-amino-3-O-sulfonato-2-deoxy-α-D-glucopyranosyl)-(1→4)-O-(2-O-sulfonato-α-L-idopyranosyluronate)-(1→4)-O-(2-amino-3-O-sulfonato-2-deoxy-α-D-glucopyranosyl)]-(1→4)-O-2-O-sulfonato-α-L-idopyranosiduronate] | 9 | 64 | 66 | 27 | 48 | 45 | 4 | 35 | 1
5 | NCCOCCO[C@@H]1OC(C(=O)O)[C@@H](O[C@@H]2OC(C(=O)O)[C@@H](O)C(O)C2O)C(O)C1O (stereo partly drawn) [Example 4, Ethoxy-2-aminoethoxyl-O-(α-L-idopyranosyl Uronic Acid-α(1→4))-α-L-idopyranosyl Uronic Acid] | 12 | 67 | 56 | 44 | 48 | 56 | 2 | 33 | 2
